Read-outs that look alike come from different tables or passages of the source.
Legend:
hERG K+ channel = target: T1, hERG K+ channel (Homo sapiens, UniProt Q12809); assay: hERG channel inhibition assay (patch-clamp, CHO-hERG cells); type: cell-based
T1 construct: expressed in transfected cells; host or cells: CHO (Chinese hamster ovary)
Protocol: The hERG K^+ channels were cloned in humans and stably expressed in a CHO (Chinese hamster ovary) cell line. CHOhERG cells were used for patch-clamp (voltage-clamp, whole-cell) experiments. Cells were stimulated by a voltage pattern to activate hERG channels and conduct IKhERG Currents (rapid delayed outward rectifier potassium current of the hERG channel). After the cells were stabilized for a few minutes, the amplitude and kinetics of IKhERG were recorded at a stimulation frequency of 0.1 Hz (6 bpm). Thereafter, the test compound was added to the preparation at increasing concentrations. For each concentration, an attempt was made to reach a steady-state effect, usually, this was achieved within 3-10 min at which time the next highest concentration was applied. The amplitude and kinetics of IKhERG are recorded in each concentration of the drug which were compared to the control values (taken as 100%). (references: Redfe W S, Carlsson L, Davis A S, Lynch W G, MacKenzie I, Palethorpe S, Siegl P K, Strang I, Sullivan A T, Wallis R, Camm A J, Hammond T G. 2003; Relationships between preclinical cardiac electrophysiology, clinical QT interval prolongation and torsade de pointes for a broad range of drugs: evidence for a provisional safety margin in drug development. Cardiovasc. Res. 58:32-45, Sanguinetti M C, Tristani-Firouzi M. 2006; hERG potassium channels and cardiac arrhythmia. Nature 440:463-469, Webster R, Leishman D, Walker D. 2002; Towards a drug concentration effect relationship for QT prolongation and torsades de pointes. Curr. Opin. Drug Discov. Devel. 5:116-26).

[1] = Single dose pharmacokinetics (PK) study in male Wister-Han rats; type: in vivo; details: rat
Protocol: Pharmacokinetic properties of selected compounds were assessed by single dose PK studies in Male Wister-Han Rats (vendor: Beijing Vital River Laboratory Animal Technology Co., Ltd). Briefly, two groups of animals were administered a single dose of respective compound intravenously (IV, bolus) at 2 mg/kg or orally (PO, by gavage) at 10 mg/kg. Blood samples (approximately 150 μL) were collected via Jugular vein at 5 min (only for IV), 15 min, 30 min, 1 h, 2 h, 4 h, 7 h and 24 h post-dose. Blood samples were placed into tubes containing EDTA-K2 anticoagulant and centrifuged at 3000 rpm for 15 min at 4° C. to separate plasma from the samples. After centrifugation, the resulting plasma was transferred to clean tubes for bioanalysis with LC/MS/MS. The pharmacokinetic parameters were calculated using non-compartmental analysis. The volume of distribution (Vss), half-life (T1/2) and clearance (CL) were obtained based on the plasma concentration-time curve after IV dose. The peak concentration (Cmax) was recorded directly from experimental observations after PO dose. The area under the plasma concentration-time curve (AUC0-last) was calculated using the linear trapezoidal rule up to the last detectable concentration. The bioavailability (F) was calculated based on the dose normalized AUC0-last after IV and PO dose.
The Vss of a drug represents the degree to which a drug is distributed in body tissue rather than the plasma. Vss is directly proportional with the amount of drug distributed into tissue. A higher Vss indicates a greater amount of tissue distribution.

[2] = male, Wister-Han, plasma, IV 2 mg/kg

T1 sequence (Q12809 whole entry): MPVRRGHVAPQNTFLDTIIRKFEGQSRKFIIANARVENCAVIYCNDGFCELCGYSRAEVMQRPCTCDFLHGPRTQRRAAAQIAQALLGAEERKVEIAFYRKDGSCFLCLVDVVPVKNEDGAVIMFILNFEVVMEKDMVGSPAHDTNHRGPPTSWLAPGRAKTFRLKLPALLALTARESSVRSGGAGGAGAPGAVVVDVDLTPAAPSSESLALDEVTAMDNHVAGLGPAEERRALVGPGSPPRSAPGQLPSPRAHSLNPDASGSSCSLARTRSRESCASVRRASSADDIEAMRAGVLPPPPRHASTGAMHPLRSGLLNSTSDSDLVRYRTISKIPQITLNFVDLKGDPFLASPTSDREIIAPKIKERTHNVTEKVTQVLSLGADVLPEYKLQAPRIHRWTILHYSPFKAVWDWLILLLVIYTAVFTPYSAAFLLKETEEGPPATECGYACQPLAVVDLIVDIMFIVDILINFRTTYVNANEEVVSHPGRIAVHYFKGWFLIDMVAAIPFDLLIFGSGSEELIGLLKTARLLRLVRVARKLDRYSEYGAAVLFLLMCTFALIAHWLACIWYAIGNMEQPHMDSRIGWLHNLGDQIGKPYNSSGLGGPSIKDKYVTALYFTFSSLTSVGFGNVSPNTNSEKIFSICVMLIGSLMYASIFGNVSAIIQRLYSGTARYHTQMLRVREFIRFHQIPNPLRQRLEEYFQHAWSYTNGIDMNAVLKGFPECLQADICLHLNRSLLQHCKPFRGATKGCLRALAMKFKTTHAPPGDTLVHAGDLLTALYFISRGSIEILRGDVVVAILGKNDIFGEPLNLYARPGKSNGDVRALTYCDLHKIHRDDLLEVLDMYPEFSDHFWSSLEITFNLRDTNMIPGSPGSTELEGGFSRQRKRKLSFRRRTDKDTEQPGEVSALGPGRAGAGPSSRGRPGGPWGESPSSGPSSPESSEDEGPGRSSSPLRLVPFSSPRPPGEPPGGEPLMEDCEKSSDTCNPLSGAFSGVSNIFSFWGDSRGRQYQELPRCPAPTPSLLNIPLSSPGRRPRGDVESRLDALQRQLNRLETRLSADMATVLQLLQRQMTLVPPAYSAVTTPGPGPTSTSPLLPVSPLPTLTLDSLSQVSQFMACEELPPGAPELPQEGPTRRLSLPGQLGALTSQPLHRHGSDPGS

Cc1cc(N2CCC(c3ncc(N4CCNCC4)cc3C)CC2)c2cnn(C)c2n1 [Example 7, 1,6-dimethyl-4-[4-(3-methyl-5-piperazin-1-yl-2-pyridyl)-1-piperidyl]pyrazolo[3,4-b]pyridine]
IC50 (hERG K+ channel; CHO-hERG cells, whole-cell patch-clamp): > 20 µM | IC20 (hERG K+ channel; human, CHO cells stably expressing hERG, CHO-hERG cells, whole-cell patch-clamp): 5.1 µM | hERG IC20/TLR7 IC50 (hERG K+ channel; safety ratio): 463.6 | hERG IC20/TLR8 IC50 (hERG K+ channel; safety ratio): 175.9 | hERG IC20/TLR9 IC50 (hERG K+ channel; safety ratio): 98.1 | clearance [1, 2]: 16 mL/min/kg | half-life [1, 2]: 14.7 h | AUC(0-t) ([1]; male, Wister-Han, plasma, IV 2 mg/kg, read-out: IV AUC0-last): 1520 ng·h/mL | Vd ([1]; male, Wister-Han, plasma, IV 2 mg/kg, read-out: Vss): 16.8 L/kg | Cmax ([1]; male, Wister-Han, plasma, PO 10 mg/kg): 465 ng/mL | AUC(0-t) ([1]; male, Wister-Han, plasma, PO 10 mg/kg, read-out: PO AUC0-last): 7510 ng·h/mL | F ([1]; dose normalized AUC0-last after IV and PO dose): 100%

Reference: patent publication US20240360126A1, “PYRAZOLO[3,4-B]PYRIDINE COMPOUNDS FOR THE TREATMENT OF AUTOIMMUNE DISEASE” (Hoffmann-La Roche Inc., priority 2021, published 2024)
